Source: ChEMBL document CHEMBL1123613, “2,4-Diamino-6,7-dimethoxyquinazolines. 3. 2-(4-Heterocyclylpiperazin-1-yl) derivatives as alpha 1-adrenoceptor antagonists and antihypertensive agents” (J Med Chem, 1987)
The source made the active and inactive calls. No cut-off for these calls is given here.

Columns and labels:
Rattus norvegicus [1] = experiment: Antihypertensive activity was determined by percent reduction in blood pressure after 1 hr upon peroral administration of 5 mg/kg dose in spontaneously hypertensive rats(SHR).; type: functional; details: route oral
[2] = molecular target: T1, Adrenergic receptor alpha-1 (Rattus norvegicus, UniProt P15823+P23944+P43140); experiment: Binding affinity against alpha-1-adrenoceptor in rat brain homogenates [3H]-prazosin displacement.; type: tissue-based
T1 sequence (P15823 whole entry): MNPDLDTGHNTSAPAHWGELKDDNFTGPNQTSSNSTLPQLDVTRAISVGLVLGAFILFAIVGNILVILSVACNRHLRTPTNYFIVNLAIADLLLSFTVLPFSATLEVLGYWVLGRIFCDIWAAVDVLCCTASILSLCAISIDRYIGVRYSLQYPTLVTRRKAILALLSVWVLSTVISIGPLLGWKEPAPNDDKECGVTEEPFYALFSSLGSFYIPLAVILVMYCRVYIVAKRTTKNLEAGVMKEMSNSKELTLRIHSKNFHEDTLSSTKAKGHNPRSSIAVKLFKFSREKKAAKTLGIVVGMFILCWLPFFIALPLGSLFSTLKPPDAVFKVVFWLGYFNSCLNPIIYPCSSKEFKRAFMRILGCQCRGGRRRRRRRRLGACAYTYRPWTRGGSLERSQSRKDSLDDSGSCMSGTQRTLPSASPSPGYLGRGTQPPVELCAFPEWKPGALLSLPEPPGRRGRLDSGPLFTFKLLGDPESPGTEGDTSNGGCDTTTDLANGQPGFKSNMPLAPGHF
T1 sequence (P23944 whole entry): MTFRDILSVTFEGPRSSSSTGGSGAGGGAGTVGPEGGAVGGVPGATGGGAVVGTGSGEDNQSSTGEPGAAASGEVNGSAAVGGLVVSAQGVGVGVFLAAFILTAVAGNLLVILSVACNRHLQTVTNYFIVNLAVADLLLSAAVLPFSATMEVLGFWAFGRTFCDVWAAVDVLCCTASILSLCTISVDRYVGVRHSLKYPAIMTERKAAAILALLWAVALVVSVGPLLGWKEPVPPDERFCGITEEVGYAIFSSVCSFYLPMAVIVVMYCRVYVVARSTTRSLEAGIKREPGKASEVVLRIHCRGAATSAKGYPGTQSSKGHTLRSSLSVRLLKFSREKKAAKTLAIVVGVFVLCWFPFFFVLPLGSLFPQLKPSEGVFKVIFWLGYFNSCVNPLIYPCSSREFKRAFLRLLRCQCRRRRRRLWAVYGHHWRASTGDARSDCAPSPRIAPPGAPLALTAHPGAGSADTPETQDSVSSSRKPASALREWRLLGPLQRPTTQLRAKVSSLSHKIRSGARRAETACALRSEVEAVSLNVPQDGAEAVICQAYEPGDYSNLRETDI
T1 sequence (P43140 whole entry): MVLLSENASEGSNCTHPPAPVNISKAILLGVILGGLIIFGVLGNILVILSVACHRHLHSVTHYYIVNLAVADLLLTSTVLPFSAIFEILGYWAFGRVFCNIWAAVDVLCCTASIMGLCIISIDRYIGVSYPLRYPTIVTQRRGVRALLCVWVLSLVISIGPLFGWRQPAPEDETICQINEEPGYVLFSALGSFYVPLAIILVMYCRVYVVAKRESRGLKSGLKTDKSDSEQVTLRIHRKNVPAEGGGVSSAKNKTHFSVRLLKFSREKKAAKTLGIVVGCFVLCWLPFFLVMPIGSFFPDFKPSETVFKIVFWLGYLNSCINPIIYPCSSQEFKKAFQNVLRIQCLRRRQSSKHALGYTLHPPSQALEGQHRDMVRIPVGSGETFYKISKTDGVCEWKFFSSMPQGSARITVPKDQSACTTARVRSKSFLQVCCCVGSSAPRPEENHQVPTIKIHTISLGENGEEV

Rattus norvegicus [3] = experiment: Antihypertensive activity was determined by percent reduction in blood pressure after 4 hr upon peroral administration of 3 mg/kg dose in spontaneously hypertensive rats(SHR).; type: functional; details: route oral
[4] = molecular target: T2, Adrenergic receptor alpha-2 (Rattus norvegicus) (UniProt P22086+P19328+P22909); experiment: Percent displacement of [3H]clonidine from alpha-2-adrenoceptor in rat brain homogenates at 10E-6 M; Activity of less than 50%.; type: tissue-based
Rattus norvegicus [5] = experiment: Antihypertensive activity was determined by percent reduction in blood pressure after 6 hr upon peroral administration of 5 mg/kg dose in spontaneously hypertensive rats(SHR).; type: functional; details: route oral
[6] = molecular target: T2, Adrenergic receptor alpha-2 (Rattus norvegicus); experiment: Percent displacement of [3H]clonidine to alpha-2-adrenoceptor was determined in rat brain homogenates at 10E-6 M; type: tissue-based
Rattus norvegicus [7] = experiment: Antihypertensive activity was determined by percent reduction in blood pressure after 6 hr upon peroral administration of 5 mg/kg dose in spontaneously hypertensive rats(SHR); not significant because of blood pressure falls below 10%; type: functional; details: route oral
Rattus norvegicus [8] = experiment: Antihypertensive activity was determined by percent reduction in blood pressure after 1 hr upon peroral administration of 5 mg/kg dose in spontaneously hypertensive rats(SHR); not significant because of blood pressure falls below 10%; type: functional; details: route oral

Compound	Reduction (Rattus norvegicus [1]) [%]	Ki [2] [nM]	Reduction (Rattus norvegicus [3]) [%]	Displacement [4]	Reduction (Rattus norvegicus [5]) [%]	Displacement [6] [%]	Reduction (Rattus norvegicus [7]) [%]	Reduction (Rattus norvegicus [8]) [%]
COc1cc2nc(N3CCN(c4ccc(OC(C)C)nn4)CC3)nc(N)c2cc1OC	39	0.29	33	inactive				
CCCOc1cc(N2CCN(c3nc(N)c4cc(OC)c(OC)cc4n3)CC2)ncn1	39	0.36		inactive	22			
COc1cc2nc(N3CCN(c4nccc(C)n4)CC3)nc(N)c2cc1OC	28	0.92		inactive	15			
COc1cc(N2CCN(c3nc(N)c4cc(OC)c(OC)cc4n3)CC2)nc(OC)n1	22	0.16			20	54.2		
COc1cc2nc(N3CCN(c4cnccn4)CC3)nc(N)c2cc1OC		0.18		inactive			8	7
COc1cc2nc(N3CCN(c4cc(OC(C)C)ncn4)CC3)nc(N)c2cc1OC	55	0.18		inactive	49			
COc1cc2nc(N3CCN(c4nccc(N(C)C)n4)CC3)nc(N)c2cc1OC		0.27		inactive	13			7
COc1cc2nc(N3CCN(c4cc(N(C)C)ncn4)CC3)nc(N)c2cc1OC					18			8
COc1cc2nc(N3CCN(c4ccncn4)CC3)nc(N)c2cc1OC	21	0.27	12	inactive				
COc1cc2nc(N3CCN(c4ccnc(N5CCOCC5)n4)CC3)nc(N)c2cc1OC	16	0.31	43	inactive				
COc1cc2nc(N3CCN(c4ncccn4)CC3)nc(N)c2cc1OC	40	0.26		inactive	28			
COc1cc2nc(N3CCN(c4cccnn4)CC3)nc(N)c2cc1OC	22	0.4	20	inactive				
COc1cc2nc(N3CCN(c4nc(N)nc(N)n4)CC3)nc(N)c2cc1OC		0.47		inactive	12			2
COc1nc(OC)nc(N2CCN(c3nc(N)c4cc(OC)c(OC)cc4n3)CC2)n1	15	0.08		inactive	22			
COc1cc2nc(N3CCN(c4nc(Oc5ccccc5)nc(Oc5ccccc5)n4)CC3)nc(N)c2cc1OC		0.87		inactive			8	9
COc1cc2nc(N3CCN(c4nccc(-c5ccccc5)n4)CC3)nc(N)c2cc1OC	17	1.66		inactive	17			
CCCOc1ccnc(N2CCN(c3nc(N)c4cc(OC)c(OC)cc4n3)CC2)n1	34	0.32		inactive	22			
COc1cc2nc(N3CCN(C(=O)c4ccco4)CC3)nc(N)c2cc1OC [PRAZOSIN]	33				29			
COc1ccnc(N2CCN(c3nc(N)c4cc(OC)c(OC)cc4n3)CC2)n1	15	0.19		inactive	14			
COc1cc2nc(N3CCN(c4ccnc(Oc5ccccc5)n4)CC3)nc(N)c2cc1OC	19	0.24		inactive	24			
